Results as given in PMC3731160 (ACS medicinal chemistry letters, 2013).
Converted amounts (≈) assume the structure as drawn. Read-outs that look alike come from different tables or passages of the source.

Columns and labels:
[1] = molecular target: EP2 receptor (Homo sapiens, UniProt P43116); test: PGE2-induced cAMP accumulation; format: cell-based; conditions: competitive antagonism of EP2
[2] = molecular target: EP4 receptor (Homo sapiens, UniProt P35408); conditions: for inhibition of EP4 receptor: up to 40 µM, agonist saturated conditions
[3] = molecular target: IP receptor (Homo sapiens, UniProt P43119); test: cell-based
[4] = system: β2-Adrenergic receptors; test: β2-adrenergic receptor counter assay; conditions: up to 40 µM, agonist saturated conditions
[5] = Aqueous solubility in PBS buffer by nephelometry; conditions: pH 7
[6] = Metabolic stability in pooled mouse liver microsomes; conditions: 1 and 10 µM
[7] = Metabolic stability in pooled human liver microsomes; conditions: 1 and 10 µM
[8] = Pharmacokinetics and brain permeability in female C57Bl/6 mice; conditions: 1h and 2h
[9] = system: P388D1 macrophages; test: Butaprost-induced mRNA expression of inflammatory markers in P388D1 macrophages; format: cell-based

EP4 receptor, sequence (P35408 whole entry): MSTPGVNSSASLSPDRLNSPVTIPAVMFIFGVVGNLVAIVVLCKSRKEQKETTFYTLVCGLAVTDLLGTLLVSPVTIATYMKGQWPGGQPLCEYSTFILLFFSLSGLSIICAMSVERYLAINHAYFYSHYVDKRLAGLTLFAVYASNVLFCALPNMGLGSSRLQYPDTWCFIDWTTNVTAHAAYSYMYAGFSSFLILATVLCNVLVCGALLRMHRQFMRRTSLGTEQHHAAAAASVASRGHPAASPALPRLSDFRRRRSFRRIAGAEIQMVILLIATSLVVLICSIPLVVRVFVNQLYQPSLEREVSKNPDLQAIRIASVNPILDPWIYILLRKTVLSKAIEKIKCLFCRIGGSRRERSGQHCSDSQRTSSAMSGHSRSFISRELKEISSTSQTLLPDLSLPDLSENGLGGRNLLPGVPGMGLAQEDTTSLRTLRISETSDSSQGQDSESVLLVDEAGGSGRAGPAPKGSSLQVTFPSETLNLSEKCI
EP2 receptor, sequence (P43116 whole entry): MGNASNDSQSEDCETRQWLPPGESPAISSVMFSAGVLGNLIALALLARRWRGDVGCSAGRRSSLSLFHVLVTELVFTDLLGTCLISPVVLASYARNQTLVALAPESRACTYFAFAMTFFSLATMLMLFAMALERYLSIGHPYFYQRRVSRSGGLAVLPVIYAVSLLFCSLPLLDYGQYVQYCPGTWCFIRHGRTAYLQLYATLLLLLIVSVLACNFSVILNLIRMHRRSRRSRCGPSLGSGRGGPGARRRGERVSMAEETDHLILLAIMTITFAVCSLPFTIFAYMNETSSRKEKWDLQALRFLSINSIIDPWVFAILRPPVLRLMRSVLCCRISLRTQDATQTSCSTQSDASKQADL
IP receptor, sequence (P43119 whole entry): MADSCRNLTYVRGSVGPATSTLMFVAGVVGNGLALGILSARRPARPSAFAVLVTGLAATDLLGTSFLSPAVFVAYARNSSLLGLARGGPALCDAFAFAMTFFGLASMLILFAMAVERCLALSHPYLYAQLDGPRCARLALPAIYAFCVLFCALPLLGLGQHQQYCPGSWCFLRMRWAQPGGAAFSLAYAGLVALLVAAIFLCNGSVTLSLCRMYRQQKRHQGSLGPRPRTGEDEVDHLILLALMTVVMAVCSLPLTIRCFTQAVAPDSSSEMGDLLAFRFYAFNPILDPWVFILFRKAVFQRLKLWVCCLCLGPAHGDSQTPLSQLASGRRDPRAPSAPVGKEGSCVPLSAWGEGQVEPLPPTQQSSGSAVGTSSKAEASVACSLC

CCc1nnc(NS(=O)(=O)c2ccc(NC(=S)NC(=O)/C=C/c3ccc(F)cc3)cc2)s1 [TG6-129, (E)-N-((4-(N-(5-ethyl-1,3,4-thiadiazol-2-yl)sulfamoyl)phenyl)carbamothioyl)-3-(4-fluorophenyl)acrylamide]
Schild regression slope [1]: 1.2
inhibition of EP4 receptor [2]: without affecting
inhibition of EP4 receptor ([2]; listed as 1): no inhibition
Kb [3]: 199 nM
inhibition of β2-Adrenergic receptor [4]: without affecting
inhibition of β2-Adrenergic receptor ([4]; listed as 1): no inhibition
solubility [5]: 145 µM (≈ 71.3 µg/mL)
compound remaining at 60 minutes [6]: 40–60%
compound remaining at 60 minutes [7]: 40–60%
compound found in brain samples ([8]; 5mg/kg ip): no detectable amount
compound found in brain samples ([8]; 10 mg/kg oral gavage): no detectable amount

CCCC1([C@H](O)C/C=C/[C@H]2[C@H](O)CC(=O)[C@@H]2CCCCCCC(=O)OC)CCC1 [butaprost]
mRNA expression of COX-2, IL-1β, IL-6, IL-12 (p40), IL-17, IL-23, TNF-α ([9]; butaprost 10 µM, 2 h): significantly elevated
expression of EP2 receptor mRNA ([9]; butaprost, 2h): only a slight increase

COc1cc(NS(=O)(=O)c2ccc(NC(=S)NC(=O)/C=C/c3ccc(F)cc3)cc2)ncn1 [compound 6]
compound remaining at 60 minutes [6]: 40–60%
compound remaining at 60 minutes [7]: 40–60%

COc1cc(NS(=O)(=O)c2ccc(NC(=S)NC(=O)c3sc4cc(F)ccc4c3Cl)cc2)nc(OC)n1 [compound 8]
KB (µM) EP4 ([2]; Schild KB, average of 2–5 independent experiments): submicromolar
